Experimental data from publication PMC13198257, “An aerosolized dual-action autotaxin inhibitor-PPARγ agonist for the treatment of pulmonary fibrosis” (Cell Reports Medicine, 2026).
pIC50: −log10 of the molar value.

How the values were obtained:
[1] = biological target: T1, Autotaxin (Homo sapiens, UniProt Q13822); assay: HDX-MS of Autotaxin with and without EL244; assay type: binding
T1 construct: purchased Sino Biological 11308-H07H
Protocol: All HDX experiments were performed using a dual head parallel Trajan LEAP automation system (Carrboro, NC, USA).[153] Briefly, 5μL of reconstituted Autotaxin (1.25mg/mL) with and without EL244, was diluted into 100μL of labeling buffer (10mM PBS, 150mM sodium chloride, pD = 7.4 in D2O). pD was determined using pH measurements with a glass electrode and corrected for the isotopic effect.[154] Samples were labeled in quadruplicate for each labeling time (30s, 300s and 3000s) at 25°C. For experiments with bounded Autotaxin, both the protein stock and labeling buffer contained 50μM of the ligand to ensure >95% bound protein during labeling.[155] Afterward, 100 μL of labeled samples were quenched by mixing with equal amounts of precooled quench buffer (100mM glycine, 3M urea, 0.5M TCEP, pH 2.3 in water) at 1°C and held at that temperature for 120s to improve disulfide bond reduction. Non-deuterated controls and initial peptide map samples were prepared identically but using 10mM PBS, 150mM sodium chloride, pH = 7.4 in water as labeling buffer. […] Peptide masses were measured using a Waters SELECT SERIES cyclic IMS QTOF system using positive mode ionization and single pass ion mobility. All HDX experiments were measured using HDMS mode while initial peptide maps used HDMSE with a collision energy ramp of 20-45v.[156] […]

[2] = biological target: hERG (Homo sapiens, UniProt Q12809); assay: hERG inhibition; assay type: biochemical
Chain of hERG (Q12809 whole entry): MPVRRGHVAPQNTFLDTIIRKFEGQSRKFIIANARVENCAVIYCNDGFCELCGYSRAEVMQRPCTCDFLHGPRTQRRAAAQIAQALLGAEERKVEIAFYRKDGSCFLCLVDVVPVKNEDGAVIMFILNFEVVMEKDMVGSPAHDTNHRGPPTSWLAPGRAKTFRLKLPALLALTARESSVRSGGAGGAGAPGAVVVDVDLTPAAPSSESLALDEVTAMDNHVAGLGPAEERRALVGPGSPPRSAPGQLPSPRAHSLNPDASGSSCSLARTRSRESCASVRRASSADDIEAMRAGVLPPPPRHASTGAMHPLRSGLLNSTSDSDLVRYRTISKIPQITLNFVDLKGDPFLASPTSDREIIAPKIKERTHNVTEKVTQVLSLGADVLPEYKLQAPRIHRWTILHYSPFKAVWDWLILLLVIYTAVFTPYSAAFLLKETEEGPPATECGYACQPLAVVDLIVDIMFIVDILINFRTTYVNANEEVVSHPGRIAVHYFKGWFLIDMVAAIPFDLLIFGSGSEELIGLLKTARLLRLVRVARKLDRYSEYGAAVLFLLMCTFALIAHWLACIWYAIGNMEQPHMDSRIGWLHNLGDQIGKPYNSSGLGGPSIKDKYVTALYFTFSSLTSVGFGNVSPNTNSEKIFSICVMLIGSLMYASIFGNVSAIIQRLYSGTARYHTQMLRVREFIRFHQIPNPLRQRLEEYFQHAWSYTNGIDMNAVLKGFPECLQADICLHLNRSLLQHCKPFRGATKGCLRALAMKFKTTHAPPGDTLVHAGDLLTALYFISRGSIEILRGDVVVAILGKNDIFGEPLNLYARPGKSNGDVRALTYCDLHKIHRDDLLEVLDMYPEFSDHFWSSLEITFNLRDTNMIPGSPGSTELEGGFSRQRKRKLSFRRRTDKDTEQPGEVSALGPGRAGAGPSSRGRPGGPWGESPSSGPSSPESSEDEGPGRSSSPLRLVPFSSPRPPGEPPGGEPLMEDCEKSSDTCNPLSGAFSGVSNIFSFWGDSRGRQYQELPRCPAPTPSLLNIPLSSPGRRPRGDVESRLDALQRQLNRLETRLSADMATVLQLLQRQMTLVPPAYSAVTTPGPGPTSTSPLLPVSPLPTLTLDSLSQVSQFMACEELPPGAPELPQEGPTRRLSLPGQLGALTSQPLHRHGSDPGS

[3] = tested on: LPA levels; assay: LPA levels in BALF and plasma of BLM mice after inhaled EL244 (MS/MS); assay type: in vivo
Protocol: Plasma (50μL), BALF (300 μL) or homogenized lung tissue (10–50 mg) were mixed with ice-cold PBS spiked with the internal standard mixture (LPA-d9, Cayman) in a glass tube (total final volume 1mL). 2 mL of ice-cold chloroform and 1 mL of methanol was added in each sample, following by vortexing for 1 min and then centrifugation at 4°C for 5 min at 4000 g. The lower transparent organic phase (chloroform phase-contains the neutral lipids) was collected in a glass tube. The remaining aqueous phase (upper phase) was left on ice for 10 min and acidified (pH 3–4) with Formic Acid 10% in water. Then 1.5 mL chloroform was added followed by thorough mixing for 1 min and centrifugation at 4°C for 5 min at 2000 g. The lower organic phase was collected and neutralized to pH 6–7. The neutralized organic phase from the acid extraction were evaporated to dryness. After evaporation we redissolve in water/methanol (1:9) with 0.1% formic acid and run in the mass spec. All MS quantitation lipid standards were purchased from Cayman unless otherwise mentioned. All LPA species analyzed in this study were quantified using the multiple reaction monitoring (MRM) scanning method on an Waters-QQQ mass spectrometer. All data were acquired and analyzed using the Waters data analysis software. The LC separation was achieved using a Gemini 5U C18 column (Phenomenex, 5 μm, 50 × 4.6 mm) coupled to a Gemini guard column (Phenomenex, 4 × 3 mm). The LC solvents were as follows: buffer A, 85% CAN, 5% MeOH +0.1% formic acid +10% 10 mM ammonium formate buffer pH5; buffer B, 95:5 (v/v) ACN/MeOH +0.1% formic acid. A typical LC-run was 35 min, with the following solvent run sequence post injection: 0.35 mL/min 5% B for 5 min, linear gradient of B from 0 to 95% over 25 min, and re-equilibration with 0.5 mL/min of 5% B for 5 min. […] All the endogenous lipid species were quantified by measuring the area under the curve in comparison to the respective internal standard, and then normalized to the total protein content of the […] tissue. The following table presents the MRM used for LPA quantification.

[4] = tested on: NHLFs; assay: Mitotracker assay in NHLFs; assay type: cell-based, human; conditions: 25 μM, TGFβ 10 ng/mL, 24 h
Protocol: NHLFs were plated at a density of 1,2 × 10^4 cells/well of a 96-well plate. The next day TGFβ (10 ng/mL) and EL244 (25 μM) or vehicle (DMSO) were added to the respective wells and incubated for 24 h. Medium was replaced with DMEM without phenol red that contained LumiTracker Mito Red CMXRos at 25 nM and a 30 min incubation followed. Medium was replaced with fresh DMEM without phenol red and without Lumitracker. Fluorescence was measured (excitation at 580 nm and reading at 600 nm) with a Tecan M200 Fluorimeter and normalized with cell number per well as measured with a Tecan Cyto Spark after cell fixation with PFA at a final concentration of 2%.

O=C1NC(=O)C(Cc2ccc(OCCC3CCN(C(=O)OCc4cc(Cl)cc(Cl)c4)CC3)cc2)S1 (centres unmarked) [EL244, 3,5-dichlorobenzyl 4-(2-(4-((2,4-dioxothiazolidin-5-yl)methyl)phenoxy)ethyl)piperidine-1-carboxylate]
Binding site on ATX ([1]; HDX-MS, protected region 214–289 mapped on 2XR9): binds to the hydrophobic pocket and the allosteric tunnel of ATX | ATX inhibitor type ([1]; HDX/MS and MD analysis): type IV ATX inhibitor | pIC50 [2]: < 4.60 | inhibition at 25 μM ([2]; human, 25 μΜ): ~12% | LPA species in BALF [3]: All LPA species, except for 18:0, were found to be reduced in the BALF | Plasma LPA levels [3]: no modulation of plasma LPA levels was detected | Total LPA content in BALFs [3]: found reduced | TGF-β-induced mitochondrial activation [4]: reduced TGF-β-induced mitochondrial activation
